From patent US20120027720A1, “PEPTIDE CONJUGATES” (priority 2008, published 2012)
*1 amine or outer side, *2 acyl side, *3 side chain or, on linkers, in order; H or OH if unused. Where no end group is shown, it is not given here. [ ]: non-standard residue; d: D form. Cys(Bzl) = L-S-benzyl-cysteine, O=C([C@H](CSCc1ccccc1)N[*:1])[*:2]; 2Pal = N[C@@H](Cc1ccccn1)C(=O)O; Cha = N[C@@H](CC1CCCCC1)C(=O)O; AllylGly = C=CC[C@H](N)C(=O)O; Tle = CC(C)(C)[C@H](N)C(=O)O; hCys = N[C@@H](CCS)C(=O)O; hSer = N[C@@H](CCO)C(=O)O

How the values were obtained:
CaCo2 monolayers [1] = experiment: Trans Epithelial Electric Resistance (TEER) across cell monolayer; format: cell-based; parameters: key to Reduced TEER: + indicates an enhancement of the permeability of the tight junctions were observed; − indicates no enhancement of permeability was observed; conditions: Caco-2 monolayer
Source text: (§1) Agonists of tight junctions can be identified by their ability to enhance the flux of compounds (e.g. ions, Lucifer Yellow) through a cell monolayer that comprises tight junctions; or by their ability to reduce TEER across a cell monolayer that comprises tight junctions. Treatment of CaCo2 monolayers with peptide FCIGRL (SEQ ID NO: 1) led to a 51-fold enhancement of Lucifer Yellow permeability through CaCo2 monolayers compared to vehicle alone. Treatment of CaCo2 monolayers with peptide FCIGRL led to a 16-fold decrease in TEER across CaCo2 monolayers compared to vehicle alone.
(§2) Determination of TEER and Lucifer Yellow Flux
(§3) Prepare Modified Hank's Balanced Salt Solution (MHBSS) by obtaining 1 L bottle of HBSS removing 10 ml of HBSS and replacing it with 10 ml HEPES buffer pH 7.0. Adjust pH to 7.4±0.1 using concentrated NaOH (10N).
(§4) Remove Caco-2 cells from incubator, grown on 12-well, […], polycarbonate Transwell® filters (Corning) and record passage#, date cells seeded and age in days.
(§5) Aspirate cell culture medium from both the apical (AP) and basolateral (BL) compartments, replacing with 0.5 ml and 1.5 ml of MHBSS, respectively. Incubate cells at 37° C. for 30 minutes.
Using the MilliCell®-ERS instrument (Millipore), measure and record the transepithelial electrical resistance (TEER) across each filter and record.
(§6) Aspirate solution from the apical compartment of each filter (n=3 per condition) and replace with 0.5 ml of control and test solutions containing Lucifer Yellow and test compound if appropriate.
(§7) Place all plates into incubator set at 37° C. (±0.2), 50 RPM (±5) for a total of 180 minutes.
At t=30, 60, 120 and 180 minutes, measure and record the transepithelial electrical resistance (TEER) across each filter using the MilliCell-ERS instrument.
(§8) Cells: Caco-2 cells passage 40-60 grown on Transwell® plates for 21-28 days
(§9) Culture Medium: DMEM supplemented with 10% fetal bovine serum, 1% NEAA, 1% Penn/Strep
(§10) Buffers: Hank's Balanced Salt Solution (HBSS) without calcium and magnesium
(§11) Flasks: 100×20 mm Tissue culture dish Falcon.
(§12) Plates: 12 well polycarbonate Transwell® filters; 0.3 uM pore size

CaCo2 monolayers [2] = experiment: Epithelial flux of Lucifer Yellow through cell monolayer; format: cell-based; parameters: key to Enhanced LY permeability: + indicates an enhancement of the permeability of the tight junctions were observed; − indicates no enhancement of permeability was observed; conditions: Lucifer Yellow flux, Caco-2 monolayer
Source text: as §1, §2, §3, §4, §5, §6, §7
At t=60, 120 and 180 minutes remove 100 μl from each basolateral compartment and place it in a 96-well plate for Lucifer Yellow analysis, replace with 100 μl of MHBSS.
Make a Lucifer Yellow standard curve with the following dilutions (7500 μM, 3750 μM, 750 μM, 375 μM, 75 μM, 37.5 μM, 7.5 μM, 3.75 μM, 0.75 μM) and pipette […] of each into a 96-well plate except for the first three standards mentioned above which require a 1:10 dilutions prior to transferring to the 96-well plate.
Harvest the remaining start solutions and what is left in each apical compartment into 1.5 ml vials. Freeze at −20° C. for future analysis.
Analyze each 96-well plate in a Tecan Spectra Fluor Plus using Magellan at 485 and 535 nm.
as §8, §9, §10, §11, §12

Substance | Reduced TEER (CaCo2 monolayers [1]) | Enhanced LY permeability (CaCo2 monolayers [2])
38 ([dL][dR]GIC[dF]; not fully specified) [compound 38] | − | −
4 (FCAGRL; not fully specified; printed as Phe-Cys-Ala-Gly-Arg-Leu) [compound 4] | − | −
168 (F[L‑4,5‑dehydro‑leucine]IGRL; not fully specified; also: peptide conjugate) [compound 168] | − | +
210 (F[AllylGly]GGRL-NH2; N-terminus assumed; SMILES C=CC[C@H](NC(=O)[C@@H](N)Cc1ccccc1)C(=O)NCC(=O)NCC(=O)N[C@@H](CCCNC(=N)N)C(=O)N[C@@H](CC(C)C)C(N)=O) [compound 210] | + | +
189 (S[AllylGly]IGRL-NH2; N-terminus assumed; SMILES C=CC[C@H](NC(=O)[C@@H](N)CO)C(=O)N[C@H](C(=O)NCC(=O)N[C@@H](CCCNC(=N)N)C(=O)N[C@@H](CC(C)C)C(N)=O)[C@@H](C)CC) [compound 189] | − | −
204 (F[AllylGly]FGRL-NH2; N-terminus assumed; SMILES C=CC[C@H](NC(=O)[C@@H](N)Cc1ccccc1)C(=O)N[C@@H](Cc1ccccc1)C(=O)NCC(=O)N[C@@H](CCCNC(=N)N)C(=O)N[C@@H](CC(C)C)C(N)=O) [compound 204] | = | +
31 ([dF][dC][dI]GR[dL]; not fully specified) [compound 31] | − | −
170 (F[hSer][dI]GR-NH2; also: peptide conjugate) [compound 170] | − | −
134 (FLIGRL; also: peptide conjugate) [compound 134] | − | −
201 (R[AllylGly]IGRL-NH2; N-terminus assumed; SMILES C=CC[C@H](NC(=O)[C@@H](N)CCCNC(=N)N)C(=O)N[C@H](C(=O)NCC(=O)N[C@@H](CCCNC(=N)N)C(=O)N[C@@H](CC(C)C)C(N)=O)[C@@H](C)CC) [compound 201] | − | −
74 (YCIGRL; not fully specified; printed as Tyr-Cys-Ile-Gly-Arg-Leu) [compound 74] | + | +
164 (FL[dI]GRL-NH2; also: peptide conjugate) [compound 164] | − | −
123 (FPIGRL; also: peptide conjugate) [compound 123] | − | −
36 ([dL]RGICF; not fully specified; printed as D-Leu-Arg-Gly-Ile-Cys-Phe) [compound 36] | − | −
209 (F[AllylGly]VGRL-NH2; N-terminus assumed; SMILES C=CC[C@H](NC(=O)[C@@H](N)Cc1ccccc1)C(=O)N[C@H](C(=O)NCC(=O)N[C@@H](CCCNC(=N)N)C(=O)N[C@@H](CC(C)C)C(N)=O)C(C)C) [compound 209] | − | −
124 (FDIGRL; also: peptide conjugate) [compound 124] | − | −
152 (F[Cys(Bzl)]IGRL; also: peptide conjugate, Xaa: 'may be' L-S-benzyl-cysteine) [compound 152] | − | −
21 ([dL]RG[dI][dC][dF]; not fully specified) [compound 21] | − | −
101 (H-FCIGR[Cha]-OH; SMILES CC[C@H](C)[C@H](NC(=O)[C@H](CS)NC(=O)[C@@H](N)Cc1ccccc1)C(=O)NCC(=O)N[C@@H](CCCNC(=N)N)C(=O)N[C@@H](CC1CCCCC1)C(=O)O) [compound 101] | + | +

Substance | Reduced TEER (CaCo2 monolayers [1]) | Enhanced LY permeability (CaCo2 monolayers [2])
117 (FLIGRL-NH2; also: peptide conjugate) [compound 117] | − | −
139 (FLIGR-NH2; also: peptide conjugate) [compound 139] | − | −
162 (F[hCys]IGRL; also: peptide conjugate, Xaa: 'may be' homocysteine) [compound 162] | + | +
128 (FGIGRL; also: peptide conjugate) [compound 128] | − | +
163 (F[2Pal]IGRL; also: peptide conjugate, Xaa: 'may be' L-beta-(2-pyridyl)-alanine) [compound 163] | − | −
205 (F[AllylGly]TGRL-NH2; N-terminus assumed; SMILES C=CC[C@H](NC(=O)[C@@H](N)Cc1ccccc1)C(=O)N[C@H](C(=O)NCC(=O)N[C@@H](CCCNC(=N)N)C(=O)N[C@@H](CC(C)C)C(N)=O)[C@@H](C)O) [compound 205] | − | −
34 (F[dC][dI]G[dR][dL]; not fully specified) [compound 34] | − | −
30 ([dF][dC][dI]G[dR]L; not fully specified) [compound 30] | + | +
35 (F[dC]IG[dR]L; not fully specified; printed as Phe-D-Cys-Ile-Gly-D-Arg-Leu) [compound 35] | + | +
197 (K[AllylGly]IGRL-NH2; N-terminus assumed; SMILES C=CC[C@H](NC(=O)[C@@H](N)CCCCN)C(=O)N[C@H](C(=O)NCC(=O)N[C@@H](CCCNC(=N)N)C(=O)N[C@@H](CC(C)C)C(N)=O)[C@@H](C)CC) [compound 197] | − | −
223 (F[AllylGly]IARL-NH2; N-terminus assumed; SMILES C=CC[C@H](NC(=O)[C@@H](N)Cc1ccccc1)C(=O)N[C@H](C(=O)N[C@@H](C)C(=O)N[C@@H](CCCNC(=N)N)C(=O)N[C@@H](CC(C)C)C(N)=O)[C@@H](C)CC) [compound 223] | + | +
192 (V[AllylGly]IGRL-NH2; N-terminus assumed; SMILES C=CC[C@H](NC(=O)[C@@H](N)C(C)C)C(=O)N[C@H](C(=O)NCC(=O)N[C@@H](CCCNC(=N)N)C(=O)N[C@@H](CC(C)C)C(N)=O)[C@@H](C)CC) [compound 192] | − | −
157 (F[Tle]IGRL-OH; not fully specified; also: peptide conjugate, Xaa: 'may be' L-tert-butylglycine) [compound 157] | + | +
224 (F[AllylGly]IPRL-NH2; N-terminus assumed; SMILES C=CC[C@H](NC(=O)[C@@H](N)Cc1ccccc1)C(=O)N[C@H](C(=O)N1CCC[C@H]1C(=O)N[C@@H](CCCNC(=N)N)C(=O)N[C@@H](CC(C)C)C(N)=O)[C@@H](C)CC) [compound 224] | − | −
87 (Ac-FLIGRL-NH2; not fully specified) [compound 87] | + | +
9 (IGRL; not fully specified; printed as Ile-Gly-Arg-Leu) [compound 9] | − | −
133 (FYIGRL; also: peptide conjugate) [compound 133] | − | −
83 (GFCIGRL; not fully specified; printed as Gly-Phe-Cys-Ile-Gly-Arg-Leu) [compound 83] | + | +
